Assay: molar heat capacity at constant pressure
Conditions: 101.33 kPa

CC1=CCC2C(=O)OC(=O)C2C1 (stereo not given) [4-methyl-cyclohex-4-ene-1, 2-dicarboxylic acid anhydride]
Conditions	molar heat capacity at constant pressure [J/K/mol]
80 K, Crystal	65.23
80.45 K, Crystal	63.17
81.95 K, Crystal	63.26
83.53 K, Crystal	63.39
85 K, Crystal	64.37
85.17 K, Crystal	63.65
86.78 K, Crystal	64.05
88.38 K, Crystal	64.45
89.95 K, Crystal	65.12
90 K, Crystal	64.76
91.5 K, Crystal	65.63
93.03 K, Crystal	66.26
94.54 K, Crystal	66.83
95 K, Crystal	66.05
96.03 K, Crystal	67.49
97.51 K, Crystal	68.15
98.97 K, Crystal	68.87
100 K, Crystal	67.97
100.41 K, Crystal	69.38
101.84 K, Crystal	69.93
103.26 K, Crystal	70.47
104.66 K, Crystal	71.22
105 K, Crystal	70.28
106.05 K, Crystal	71.84
107.43 K, Crystal	72.36
108.8 K, Crystal	72.92
110 K, Crystal	72.81
110.15 K, Crystal	73.65
111.5 K, Crystal	74.07
112.83 K, Crystal	74.66
114.15 K, Crystal	75.18
115 K, Crystal	75.44
115.47 K, Crystal	75.87
116.77 K, Crystal	76.33
118.07 K, Crystal	76.91
119.35 K, Crystal	77.54
120 K, Crystal	78.06
120.63 K, Crystal	78.18
121.9 K, Crystal	78.77
123.16 K, Crystal	79.3
124.42 K, Crystal	79.75
125 K, Crystal	80.62
125.66 K, Crystal	80.33
126.9 K, Crystal	80.87
128.14 K, Crystal	81.35
129.36 K, Crystal	81.93
130 K, Crystal	83.08
130.58 K, Crystal	82.44
131.83 K, Crystal	82.95
132.96 K, Crystal	83.78
134.16 K, Crystal	84.15
135 K, Crystal	85.43
135.38 K, Crystal	84.59
136.59 K, Crystal	85.28
137.72 K, Crystal	85.94
138.93 K, Crystal	86.2
140 K, Crystal	87.67
140.14 K, Crystal	86.69
141.27 K, Crystal	86.97
142.48 K, Crystal	87.65
143.6 K, Crystal	88.22
144.72 K, Crystal	88.9
145 K, Crystal	89.84
145.85 K, Crystal	89.28
146.98 K, Crystal	89.92
148.1 K, Crystal	90.42
149.22 K, Crystal	90.83
150 K, Crystal	91.95
150.43 K, Crystal	91.65
151.55 K, Crystal	91.97
153.01 K, Crystal	92.74
154.67 K, Crystal	93.61
155 K, Crystal	94.06
156.32 K, Crystal	94.64
158.04 K, Crystal	95.26
159.69 K, Crystal	95.96
160 K, Crystal	96.19
161.35 K, Crystal	96.78
162.97 K, Crystal	97.8
164.62 K, Crystal	98.83
165 K, Crystal	98.39
166.25 K, Crystal	99.65
167.8 K, Crystal	100.5
169.46 K, Crystal	101.34
170 K, Crystal	100.7
171.37 K, Crystal	102.49
173.61 K, Crystal	103.54
175 K, Crystal	103.17
175.85 K, Crystal	104.8
178.12 K, Crystal	106.11
180 K, Crystal	105.81
180.28 K, Crystal	107.31
182.43 K, Crystal	108.56
184.61 K, Crystal	109.77
185 K, Crystal	108.67
186.68 K, Crystal	111.17
188.84 K, Crystal	112.46
190 K, Crystal	111.75
190.92 K, Crystal	113.85
192.99 K, Crystal	115.1
195 K, Crystal	115.07
195.07 K, Crystal	116.42
197.13 K, Crystal	117.72
199.15 K, Crystal	118.98
200 K, Crystal	118.62
201.22 K, Crystal	120.78
203.2 K, Crystal	121.75
205 K, Crystal	122.4
205.18 K, Crystal	123.46
207.19 K, Crystal	124.73
209.14 K, Crystal	126.14
210 K, Crystal	126.39
211.09 K, Crystal	127.51
213.03 K, Crystal	128.87
214.97 K, Crystal	130.45
215 K, Crystal	130.57
216.9 K, Crystal	132.32
218.84 K, Crystal	133.96
220 K, Crystal	134.91
220.75 K, Crystal	135.72
222.7 K, Crystal	137.13
224.58 K, Crystal	138.58
225 K, Crystal	139.36
226.56 K, Crystal	139.98
228.41 K, Crystal	141.35
230 K, Crystal	143.9
230.19 K, Crystal	142.86
232.01 K, Crystal	144.4
233.86 K, Crystal	145.93
235 K, Crystal	148.46
235.74 K, Crystal	147.41
237.59 K, Crystal	149.22
239.37 K, Crystal	150.76
240 K, Crystal	153.02
241.16 K, Crystal	152.29
242.94 K, Crystal	153.83
244.82 K, Crystal	155.45
245 K, Crystal	157.52
246.54 K, Crystal	157.09
248.36 K, Crystal	158.9
250 K, Crystal	161.95
250.17 K, Crystal	160.56
251.99 K, Crystal	162.22
253.81 K, Crystal	163.9
255 K, Crystal	166.26
255.54 K, Crystal	165.36
257.36 K, Crystal	167.29
259.09 K, Crystal	168.63
260 K, Crystal	170.45
260.82 K, Crystal	170.5
262.61 K, Crystal	172.01
264.31 K, Crystal	173.55
265 K, Crystal	174.52
266.12 K, Crystal	175.31
267.82 K, Crystal	177.02
269.53 K, Crystal	178.52
270 K, Crystal	178.5
271.28 K, Crystal	180.17
273.31 K, Crystal	181.94
275 K, Crystal	182.44
275.35 K, Crystal	183.81
277.03 K, Crystal	185.45
278.73 K, Crystal	187.1
280 K, Crystal	186.41
280.36 K, Crystal	188.67
282.45 K, Crystal	190.66
284.97 K, Crystal	193.03
285 K, Crystal	190.55
287.46 K, Crystal	195.7
289.88 K, Crystal	197.97
290 K, Crystal	195
292.31 K, Crystal	200.61
294.67 K, Crystal	203.16
295 K, Crystal	199.98
297.1 K, Crystal	205.53
298.15 K, Crystal	203.5
299.37 K, Crystal	207.64
300 K, Crystal	205.75
301.81 K, Crystal	210.9
304.16 K, Crystal	213.44
305 K, Crystal	212.62
306.51 K, Crystal	215.82
308.81 K, Crystal	218.8
310 K, Crystal	221
311.13 K, Crystal	221.26
313.43 K, Crystal	224.91
315 K, Crystal	231.34
315.72 K, Crystal	227.54
317.98 K, Crystal	230.32
320 K, Crystal	244.2
320.22 K, Crystal	234.71
322.44 K, Crystal	240.42
324.6 K, Crystal	251.25
325 K, Crystal	260.21
326.7 K, Crystal	266.66
328.7 K, Crystal	300.96
330 K, Crystal	280.12
337.34 K, Liquid	308.51
339.25 K, Liquid	307.6
340 K, Liquid	306.94
341.15 K, Liquid	306.76
343.06 K, Liquid	306.95
344.96 K, Liquid	308.07
345 K, Liquid	308.18
346.86 K, Liquid	309.65
348.76 K, Liquid	311.73
350 K, Liquid	313.29
350.67 K, Liquid	314.26
352.57 K, Liquid	316.99
354.47 K, Liquid	319.51
355 K, Liquid	320.24
356.36 K, Liquid	322.01
358.26 K, Liquid	324.95
360 K, Liquid	327.6
360.13 K, Liquid	327.9

From the NIST ThermoML archive (doi:10.1021/je049585t)
